Article PMC7043877, “Synthesis and evaluation of a prodrug of 5-aminosalicylic acid for the treatment of ulcerative colitis” (Iranian Journal of Basic Medical Sciences, 2019)

Key:
[1] = Transport study across Caco-2 monolayers (Papp); assay type: in vitro ADME, human; conditions: human, Caco-2
Experimental: (§1) Caco-2 cells were grown in DEME medium containing 10% FBS, 100 unit/ml peniciline, 100 µg/ml streptomycine, 2 mM glutamine, 1% sodium pyruvate and 1% non-essential amino acids at 37 °C in a humidified atmosphere of 95% air and 5% CO2. Cells were seeded on polycarbonate membranes (Transwell, diameter 24 mm, pore size 0.4 μm, Corning Costar, NY, USA) at 1×10^5 cells/well in a 6-well plate ([16]). Propranolol was used as a positive control.
(§2) Eight days later, Caco-2 cells reached 100% confluence and then were cultured for 18 days more. The culture medium was discarded, and then the apical (AP) and basal (BL) chambers were washed for 3 times with PBS. The culture medium was then replaced with 1 ml of propranolol or 5-ASA-ALA solution ([…]) in the AP chamber. In the BL chamber, 2 ml of PBS was added instead of the culture medium. The plate was incubated at 37 °C in an atmosphere of 95% air and 5% CO2 ([17]). After 0, 2, 4, 6, and 8 hr of incubation, the concentration of propranolol and 5-ASA-ALA in the BL chamber was measured by HPLC method, and the apparent permeability coefficient (Papp) of drugs was calculated as follows: […]
(§3) where dQ/dt (μmol/s) is the transport rate, C0 (μmol/cm^3) is the initial concentration in the donor chamber, and A (cm^2) is the surface area of insert filter membrane. Experiments were performed in triplicate.

[2] = tested on: Caco-2 cells; conditions: Caco-2 cell monolayer, known value that justifies the positive control; no reference given; cited from earlier work
[3] = Pharmacokinetic study in rats after oral administration; assay type: in vivo, rat
Experimental: Twelve male Sprague-Dawley rats were randomly divided in two groups (n=6), the 5-ASA-ALA group and 5-ASA group. Rats were orally administered with a certain amount of 5-ASA-ALA (equivalent to 50 mg/kg of 5-ASA) and 5-ASA. At 0.25, 0.5, 1, 2, 4, 6 and 8 hr, blood samples were collected from the jugular vein and then centrifuged at 13000 g, 4 °C for 5 min to separate plasma. The plasma sample (0.1 ml) was mixed with methanol (0.4 ml), vortexed for 5 min and then centrifuged again. Finally, the supernatant was obtained, dried under nitrogen, dissolved in methanol and used for HPLC detection.

[4] = Stability study of 5-ASA-ALA in rat plasma and stomach, small intestine and colon contents (room temperature storage, freezing-thawing); assay type: in vitro ADME; conditions: all tissue samples at 0.4, 1.6 and 6.4 μg/ml, both storage conditions
Experimental: This study was tested at three concentration levels of 5-ASA-ALA to evaluate its in vitro stability in tissue samples and validate the HPLC method for 5-ASA-ALA analysis under different conditions. Briefly, five rats were anesthetized and sacrificed, and their abdomen was cut open through the middle. Their stomach contents, small intestine contents and colon contents were collected and mixed with hydrochloric acid buffer (pH=1.2) and phosphate buffered saline (PBS) (pH=6.8 and 7.4), respectively, and homogenized to 20% (w/v). Then 1.0 ml of 5-ASA-ALA solution (dissolved in corresponding buffers) was mixed with the same volume of rat plasma, freshly prepared stomach contents, small intestine contents and colon contents, respectively, with the final concentration of 0.4, 1.6 and 6.4 μg/ml. Samples were divided into two groups, stored at room temperature for 10 hr or went through the freezing-thawing cycles twice. At the end of the storage and the freezing-thawing cycle, samples were centrifuged at 13000 g for 10 min and mixed with methanol (0.4 ml), then the mixture was vortexed and centrifuged again. Finally, the supernatant was collected, concentrated with nitrogen, and dissolved in methanol for HPLC analysis ([15]). Each concentration level was tested five times and the RSD was calculated respectively.

[5] = tested on: Caco-2 cells; experiment: Transport study across Caco-2 monolayers (Papp); assay type: in vitro ADME, human; conditions: compared with propranolol
Experimental: as §1, §2, §3

[6] = In vitro incubation with colon contents of rats; assay type: in vitro ADME, rat
Experimental: Four g of colon contents of rats (n=6) were collected and mixed with 5-ASA-ALA solution (0.1 g/ml) in PBS (pH=7.4, 40 ml), the mixture was incubated under nitrogen atmosphere at 37 °C. At the time point of 0, 1, 2, 3, 4, 5, 6, 7, 8, 9 and 10 hr, the mixture (0.5 ml) was sampled and replaced with an equivalent volume of PBS. Samples were then centrifuged and filtered, the concentration of 5-ASA was detected by HPLC method. The experiment was conducted at seven concentration levels of 5-ASA-ALA (27.5, 50.0, 72.5, 105.0, 150.0, 200.0 and 305.0 μg/ml). The hydrolysis curve of each concentration was drawn, the linear regression was made to obtain regression equations, and the slope of each curve was regarded as the hydrolysis rate of 5-ASA-ALA.

[7] = tested on: colonic microflora; experiment: In vivo incubation in the colon of rats (with or without clindamycin pretreatment); conditions: incubation in rat colon for 8 hr
Experimental: Rats were randomly divided into two groups (n=6), the clindamycin group and the control group. Clindamycin was used as an inhibitor of the colonic microflora. Rats were administered with a certain dose of clindamycin (25 mg/kg of body weight) and an equivalent volume of normal saline by gavage, twice daily for three days, respectively. After that, rats were anesthetized by diethyl ether, their abdomen was cut open, and then 5-ASA-ALA solution (2 mg, dissolved in 1 ml of PBS, pH=7.4) was injected into their colon, finally, their colon was tied at both ends and their abdomen was sutured immediately ([18], [19]). Eight hr later, animals were sacrificed, the colon contents of rats were collected and homogenized in PBS (pH=7.4, 40 ml). The homogenate was then centrifuged, and the supernatant was obtained and mixed with four times the volume of methanol, finally, samples were centrifuged, filtered and analyzed by HPLC. The percent of hydrolysis of 5-ASA-ALA was calculated as follows: percent of hydrolysis %=(1-Wf/Wt)×100 where Wf is the free amount of 5-ASA in the colon contents and Wi is the initial amount of 5-ASA-ALA that administered to rats.

[8] = tested on: TNBS-induced colitis; experiment: TNBS-induced colitis: survival rate and body weight of mice; assay type: in vivo; conditions: ig equivalent to 100 mg/kg of 5-ASA, once daily 5 days
Experimental: (§4) Colitis induction was performed based on the previous study ([20]). After a 12 hr of fast, mice were anesthetized with pentobarbital sodium (40 mg/kg of body weight). TNBS solution (0.1 ml dissolved in 50% ethanol, 2.5%) was injected into the colon of mice (3.5-4 cm from the anus), and then mice were kept head downward for 30 sec to prevent drug leakage. Twenty-four hr after the injection of TNBS, mice were administrated once daily for five continuous days with different drugs. Briefly, mice in treatment groups were administrated with a given dose of drugs by gavage (0.1 ml, equivalent to 100 mg/kg of 5-ASA) ([21]). Besides, mice in the control group and the positive group received a same volume of normal saline, and a physical mixture of 5-ASA and alanine, respectively. Forty-eight mice were randomly divided into four groups (n=12): 1) control (intragastric-gavage (ig), normal saline, no colitis induced), 2) TNBS (ig, normal saline), 3) positive (ig, 100 mg/kg 5-ASA+56 mg/kg alanine, dissolved in normal saline), 4) 5-ASA-ALA (ig, 156 mg/kg, dissolved in normal saline).
From day 0 of colitis induction, the body weight of each mouse and the death of each group were recorded daily. Finally, the degree of TNBS-induced colitis in mice of each group was evaluated based on the curves of weight changes and the final survival rate of mice for each group.

[9] = tested on: TNBS-induced colitis; experiment: TNBS-induced colitis: disease activity index (DAI); assay type: in vivo, mice; conditions: compared with the positive control
Experimental: as §4
The disease activity index (DAI) of mice was scored and recorded daily from day 1 according to the scoring criteria (Table 1). […] The degree of fecal occult blood was evaluated by the ο-tolidine method ([22]), and scored based on the criteria reported by Kohn and kelly ([23]).

[10] = tested on: TNBS-induced colitis; experiment: TNBS-induced colitis: colonic damage score (CDS) and colon index; assay type: in vivo, mice; conditions: vs positive control, P<0.05
Experimental: Colitis induction was performed based on the previous study ([20]). After a 12 hr of fast, mice were anesthetized with pentobarbital sodium (40 mg/kg of body weight). TNBS solution (0.1 ml dissolved in 50% ethanol, 2.5%) was injected into the colon of mice (3.5-4 cm from the anus), and then mice were kept head downward for 30 sec to prevent drug leakage. Twenty-four hr after the injection of TNBS, mice were administrated once daily for five continuous days with different drugs. Briefly, mice in treatment groups were administrated with a given dose of drugs by gavage (0.1 ml, equivalent to 100 mg/kg of 5-ASA) ([21]). […]
All mice were sacrificed on the 5th day of the experiment, their colonic tissues were excised, cut longitudinally, washed carefully with normal saline, and observed with a magnifying glass. The colonic damage score (CDS) was evaluated according to following scoring criteria: 0, no ulcer and colitis; 1, local hyperemia without ulcer; 2, ulcers without local hyperemia; 3, only one ulcerative and inflammatory lesion; 4, more than one ulcerative and inflammatory lesions; 5, more than 2 cm of continuous ulcer areas ([24]).
The entire colon samples were dried with filter papers, the length and weight of the samples were measured and recorded, respectively, in order to calculate the colon index of mice as the following formula: […]

[11] = tested on: MPO activity in colonic tissues; experiment: TNBS-induced colitis: MPO activity in colonic tissues; assay type: in vivo, mice; conditions: P<0.01
Experimental: as §4
Colonic tissue samples were cleaned, dried and then suspended in HTAB solution (0.5%, pH=7.4), the final concentration of the tissue samples was 50 g/l. […] Finally, MPO activity in colonic tissues was detected by an assay kit according to the provider’s instructions.

[12] = tested on: GSH, MDA, GSH-Px and SOD in colonic tissues; experiment: TNBS-induced colitis: levels of GSH, MDA, GSH-Px and SOD in colonic tissues; assay type: in vivo, mice; conditions: P<0.01
Experimental: as §4
Clean and dried colonic tissues were homogenized in ice-cold normal saline, the resulting homogenate (10%, w/v) was centrifuged at 4 °C, 13000 g for 15 min. The obtained supernatant was diluted with normal saline to 1% (w/v), and the protein levels in the supernatant were measured by a BCA protein assay kit. The levels of GSH and MDA, and the activity of GSH-Px and SOD in the colonic tissues were measured by assay kits according to the provider’s instructions.

[13] = vs TNBS group, five days of treatment

Compound: CC(C)NCC(O)COc1cccc2ccccc12 (centres unmarked) [Propranolol, reference compound]
- Papp at 8 hr, 100 μmol/l ([1]; detected in this study, at 100 μmol/l): 24.8 ×10⁻⁶ cm/s
- Papp [2]: 27.5 ×10⁻⁶ cm/s

Compound: Nc1ccc(O)c(C(=O)O)c1 [5-ASA, 5-Aminosalicylic acid]
- Tmax ([3]; male, Sprague-Dawley, rat, oral administration, 50 mg/kg of 5-ASA, plasma): 30 min

Compound: CC(NC(=O)c1cc(N)ccc1O)C(=O)O (centres unmarked) [5-ASA-ALA, 5-Aminosalicylic acid-alanine]
- RSDs in all tissue samples [4]: < 4%
- Papp at 8 hr, 200 μmol/l ([1]; apical to basal direction, at 200 μmol/l): 2.63 ×10⁻⁶ cm/s
- Papp at 8 hr, 400 μmol/l ([1]; apical to basal direction, at 400 μmol/l): 1.73 ×10⁻⁶ cm/s
- absorption in the Caco-2 monolayer [5]: significantly less than the propranolol
- plasma concentration ([3]; oral, equivalent to 50 mg/kg of 5-ASA, 0-8 hr): not detected
- concentration of 5-ASA-ALA above which the hydrolysis rate did not increase anymore (zero-order) ([6]; colon contents of rats, Figure 3): above 200 µg/ml
- 5-ASA released from 5-ASA-ALA ([6]; colon contents, PBS pH 7.4, nitrogen, 37 °C, 0-10 hr): gradually released
- percent of hydrolysis ([7]; clindamycin group (25 mg/kg twice daily, three days), P<0.01): 5.26%
- percent of hydrolysis ([7]; control group (normal saline)): 89.14%
- body weight ([8]; alleviated from the third day): slight weight loss in the first two days
- survival rate ([8]; positive control vs 5-ASA-ALA group, n=12): no significant difference
- DAI [9]: more effective than the positive control
- CDS [10]: significantly greater effect than the positive control
- MPO activity in colonic tissues ([11]; vs TNBS group): significantly reduced
- MPO activity in colonic tissues ([11]; vs positive control): obviously more effective than the positive control
- GSH level in colonic tissues [12, 13]: significantly higher
- GSH-Px activity in colonic tissues [12, 13]: higher activities
- MDA level in colonic tissues [12, 13]: significantly lower
- SOD activity in colonic tissues [12, 13]: higher activities
- reducing the MDA level in the colon ([12]; vs positive control): significantly greater effect
